From ChEMBL document CHEMBL1147974, “Metabolic activation of indole-containing prostaglandin D2 receptor 1 antagonists: impacts of glutathione trapping and glucuronide conjugation on covalent binding” (Bioorg Med Chem Lett, 2007)

How the values were obtained:
Liver microsomes [1] = assay: Covalent binding in rat liver microsomes after 60 mins assessed as GSH adduct formation; assay type: ADME, Microsome; conditions: 1 h
Liver microsomes [2] = assay: Covalent binding in human liver microsomes after 60 mins assessed as GSH adduct formation; assay type: ADME, Microsome; conditions: 1 h
Hepatocyte [3] = assay: Covalent binding in rat hepatocytes at 10 uM after 1 hr; assay type: ADME, cell-based
Liver microsomes [4] = assay: Covalent binding in human liver microsomes at 10 uM after 1 hr; assay type: ADME, Microsome
Hepatocyte [5] = assay: Covalent binding in human hepatocytes at 10 uM after 1 hr; assay type: ADME, cell-based
Liver microsomes [6] = assay: Covalent binding in rat liver microsomes at 10 uM after 1 hr; assay type: ADME, Microsome

| SMILES | Activity (Liver microsomes [1]) | Activity (Liver microsomes [2]) | Activity (Hepatocyte [3]) | Activity (Liver microsomes [4]) | Activity (Hepatocyte [5]) | Activity (Liver microsomes [6]) |
| --- | --- | --- | --- | --- | --- | --- |
| CC(=O)c1cc(F)cc2c3c(n(Cc4ccc(Cl)cc4)c12)[C@@H](CC(=O)O)CC3 | 41% | 15% | 45 pmol/mg | 46 pmol/mg | 16 pmol/mg | 290 pmol/mg |
| CC(=O)c1cc(S(C)(=O)=O)cc2c3c(n(Cc4ccc(Cl)cc4)c12)[C@@H](CC(=O)O)CC3 | < 0.5% | < 0.5% | 8 pmol/mg | 18 pmol/mg | 5 pmol/mg | 23 pmol/mg |
| O=C(O)C[C@H]1CCc2c1n(Cc1ccc(Cl)cc1)c1c(Br)cc(F)cc21 | 22% | 5% | 74 pmol/mg | 33 pmol/mg | 33 pmol/mg | 460 pmol/mg |
